In ChEMBL document CHEMBL1817541, “Synthesis and Evaluation of the α-D-/α-L-Rhamnosyl and Amicetosyl Digitoxigenin Oligomers as Anti-tumor Agents” (ACS Med Chem Lett, 2011):

How the values were obtained:
Type in all cases: functional
NCI-H460 [1] = test: Cytotoxicity against human NCI-H460 cell assessed as cell death at 10 nM after 12 hrs by Hoechst 33342/propidium iodide staining based fluorescence microscopy
NCI-H460 [2] = test: Cytotoxicity against human NCI-H460 cell assessed as cell death at 50 nM after 12 hrs by Hoechst 33342/propidium iodide staining based fluorescence microscopy
NCI-H460 [3] = test: Cytotoxicity against human NCI-H460 cell assessed as cell death at 100 nM after 12 hrs by Hoechst 33342/propidium iodide staining based fluorescence microscopy
NCI-H460 [4] = test: Cytotoxicity against human NCI-H460 cell assessed as cell death at 500 nM after 12 hrs by Hoechst 33342/propidium iodide staining based fluorescence microscopy
NCI-H460 [5] = test: Cytotoxicity against human NCI-H460 cell assessed as cell death at 1 uM after 12 hrs by Hoechst 33342/propidium iodide staining based fluorescence microscopy
NCI-H460 [6] = test: Cytotoxicity against human NCI-H460 cells in serum free medium assessed as cell death at 10 uM after 12 hrs by Hoechst 33342/propidium iodide staining based fluorescence microscopy
NCI-H460 [7] = test: Cytotoxicity against human NCI-H460 cell assessed as cell death at 100 uM after 12 hrs by Hoechst 33342/propidium iodide staining based fluorescence microscopy
NCI-H460 [8] = test: Cytotoxicity against human NCI-H460 cell assessed as cell death after 12 hrs by Hoechst 33342/propidium iodide staining based fluorescence microscopy; conditions: NCI-H460, 12 h
NCI-H460 [9] = test: Induction of apoptosis in human NCI-H460 cells in at 50 nM after 12 hrs by Hoechst 33342/propidium iodide staining based fluorescence microscopy
MOLT-4 = test: Cytotoxicity against human MOLT4 cells after 48 hrs by sulforhodamine B assay; conditions: MOLT-4, 48 h
RPMI-8226 = test: Cytotoxicity against human RPMI8226 cells after 48 hrs by sulforhodamine B assay; conditions: RPMI-8226, 48 h
SR = test: Cytotoxicity against human SR cells after 48 hrs by sulforhodamine B assay
A549 = test: Cytotoxicity against human A549 cells after 48 hrs by sulforhodamine B assay; conditions: A549, 48 h
EKVX = test: Cytotoxicity against human EKVX cells after 48 hrs by sulforhodamine B assay
HOP-62 = test: Cytotoxicity against human HOP62 cells after 48 hrs by sulforhodamine B assay; conditions: HOP-62, 48 h
HOP-92 = test: Cytotoxicity against human HOP92 cells after 48 hrs by sulforhodamine B assay; conditions: HOP-92, 48 h
NCI-H226 = test: Cytotoxicity against human NCI-H226 cells after 48 hrs by sulforhodamine B assay; conditions: NCI-H226, 48 h
NCI-H322M = test: Cytotoxicity against human NCI-H322M cells after 48 hrs by sulforhodamine B assay
NCI-H460 [10] = test: Cytotoxicity against human NCI-H460 cells after 48 hrs by sulforhodamine B assay; conditions: NCI-H460, 48 h
NCI-H522 = test: Cytotoxicity against human NCI-H522 cells after 48 hrs by sulforhodamine B assay; conditions: NCI-H522, 48 h
COLO 205 = test: Cytotoxicity against human COLO205 cells after 48 hrs by sulforhodamine B assay; conditions: COLO 205, 48 h
HCT-15 = test: Cytotoxicity against human HCT15 cells after 48 hrs by sulforhodamine B assay; conditions: HCT-15, 48 h
HT-29 = test: Cytotoxicity against human HT-29 cells after 48 hrs by sulforhodamine B assay; conditions: HT-29, 48 h
KM12 = test: Cytotoxicity against human KM12 cells after 48 hrs by sulforhodamine B assay; conditions: KM12, 48 h
SW-620 = test: Cytotoxicity against human SW620 cells after 48 hrs by sulforhodamine B assay; conditions: SW-620, 48 h
SF-268 = test: Cytotoxicity against human SF268 cells after 48 hrs by sulforhodamine B assay; conditions: SF-268, 48 h
SF-295 = test: Cytotoxicity against human SF295 cells after 48 hrs by sulforhodamine B assay; conditions: SF-295, 48 h
SF-539 = test: Cytotoxicity against human SF539 cells after 48 hrs by sulforhodamine B assay; conditions: SF-539, 48 h
SNB-19 = test: Cytotoxicity against human SNB19 cells after 48 hrs by sulforhodamine B assay; conditions: SNB-19, 48 h
SNB-75 = test: Cytotoxicity against human SNB75 cells after 48 hrs by sulforhodamine B assay; conditions: SNB-75, 48 h
U-251 = test: Cytotoxicity against human U251 cells after 48 hrs by sulforhodamine B assay; conditions: U-251, 48 h
PC-3 = test: Cytotoxicity against human PC3 cells after 48 hrs by sulforhodamine B assay; conditions: PC-3, 48 h
DU-145 = test: Cytotoxicity against human DU145 cells after 48 hrs by sulforhodamine B assay; conditions: DU-145, 48 h
LOX IMVI = test: Cytotoxicity against human LOXIMVI cells after 48 hrs by sulforhodamine B assay
Malme-3M = test: Cytotoxicity against human MALME-3M cells after 48 hrs by sulforhodamine B assay
M14 = test: Cytotoxicity against human M14 cells after 48 hrs by sulforhodamine B assay; conditions: M14, 48 h
MDA-MB-435 = test: Cytotoxicity against human MDA-MB-435 cells after 48 hrs by sulforhodamine B assay; conditions: MDA-MB-435, 48 h
SK-MEL-28 = test: Cytotoxicity against human SK-MEL-28 cells after 48 hrs by sulforhodamine B assay; conditions: SK-MEL-28, 48 h
SK-MEL-5 = test: Cytotoxicity against human SK-MEL-5 cells after 48 hrs by sulforhodamine B assay; conditions: SK-MEL-5, 48 h
UACC-257 = test: Cytotoxicity against human UACC257 cells after 48 hrs by sulforhodamine B assay; conditions: UACC-257, 48 h
NCI-H23 = test: Cytotoxicity against human NCI-H23 cells after 48 hrs by sulforhodamine B assay; conditions: NCI-H23, 48 h
UACC-62 = test: Cytotoxicity against human UACC62 cells after 48 hrs by sulforhodamine B assay; conditions: UACC-62, 48 h
OVCAR-3 = test: Cytotoxicity against human OVCAR3 cells after 48 hrs by sulforhodamine B assay; conditions: OVCAR-3, 48 h
OVCAR-4 = test: Cytotoxicity against human OVCAR4 cells after 48 hrs by sulforhodamine B assay; conditions: OVCAR-4, 48 h
OVCAR-8 = test: Cytotoxicity against human OVCAR8 cells after 48 hrs by sulforhodamine B assay; conditions: OVCAR-8, 48 h
SK-OV-3 = test: Cytotoxicity against human SKOV3 cells after 48 hrs by sulforhodamine B assay; conditions: SK-OV-3, 48 h
786-0 = test: Cytotoxicity against human 786-0 cells after 48 hrs by sulforhodamine B assay; conditions: 786-0, 48 h
A498 = test: Cytotoxicity against human A498 cells after 48 hrs by sulforhodamine B assay; conditions: A498, 48 h
ACHN = test: Cytotoxicity against human ACHN cells after 48 hrs by sulforhodamine B assay
SN12C = test: Cytotoxicity against human SN12C cells after 48 hrs by sulforhodamine B assay
TK-10 = test: Cytotoxicity against human TK10 cells after 48 hrs by sulforhodamine B assay; conditions: TK-10, 48 h
UO-31 = test: Cytotoxicity against human UO31 cells after 48 hrs by sulforhodamine B assay; conditions: UO-31, 48 h
MCF7 = test: Cytotoxicity against human MCF7 cells after 48 hrs by sulforhodamine B assay; conditions: MCF7, 48 h
MDA-MB-231 = test: Cytotoxicity against human MDA-MB-231 cells after 48 hrs by sulforhodamine B assay; conditions: MDA-MB-231, 48 h
Hs-578T = test: Cytotoxicity against human Hs578T cells after 48 hrs by sulforhodamine B assay
T47D = test: Cytotoxicity against human T47D cells after 48 hrs by sulforhodamine B assay

## C[C@@H]1O[C@@H](O[C@H]2CC[C@@]3(C)[C@H](CC[C@@H]4[C@@H]3CC[C@]3(C)[C@@H](C5=CC(=O)OC5)CC[C@]43O)C2)CC[C@H]1O [RAMNODIGIN]
NCI-H460 [1]
  Activity: 15.1%
NCI-H460 [2]
  Activity: 53.65%
NCI-H460 [3]
  Activity: 87.28%
NCI-H460 [4]
  Activity: 100%
NCI-H460 [5]
  Activity: 100%
NCI-H460 [6]
  Activity: 100%
NCI-H460 [7]
  Activity: 100%
NCI-H460 [8]
  IC50: 48 nM
NCI-H460 [9]
  Activity: 45.71%
MOLT-4
  GI50: 2.57 nM
RPMI-8226
  GI50: 23.5 nM
SR
  GI50: 2.25 nM
A549
  GI50: 1.56 nM
EKVX
  GI50: 5.13 nM
HOP-62
  GI50: 8.55 nM
HOP-92
  GI50: 11.3 nM
NCI-H226
  GI50: 19.3 nM
NCI-H322M
  GI50: 7.78 nM
NCI-H460 [10]
  GI50: 3.83 nM
NCI-H522
  GI50: 9.38 nM
COLO 205
  GI50: 29.6 nM
HCT-15
  GI50: 20.5 nM
HT-29
  GI50: 11.9 nM
KM12
  GI50: 32.4 nM
SW-620
  GI50: 11.1 nM
SF-268
  GI50: 4.28 nM
SF-295
  GI50: 10.4 nM
SF-539
  GI50: 7.8 nM
SNB-19
  GI50: 37.5 nM
SNB-75
  GI50: 14.9 nM
U-251
  GI50: 2.57 nM
PC-3
  GI50: 9.55 nM
DU-145
  GI50: 3.45 nM
LOX IMVI
  GI50: 11.8 nM
Malme-3M
  GI50: 18.3 nM
M14
  GI50: 19.3 nM
MDA-MB-435
  GI50: 27.7 nM
SK-MEL-28
  GI50: 23.1 nM
SK-MEL-5
  GI50: 5.44 nM
UACC-257
  GI50: 19.6 nM
NCI-H23
  GI50: 4.13 nM
UACC-62
  GI50: 12.7 nM
OVCAR-3
  GI50: 4.94 nM
OVCAR-4
  GI50: 18.9 nM
OVCAR-8
  GI50: 2.5 nM
SK-OV-3
  GI50: 22.2 nM
786-0
  GI50: 6.21 nM
A498
  GI50: 20.7 nM
ACHN
  GI50: 4.31 nM
SN12C
  GI50: 3.61 nM
TK-10
  GI50: 3.75 nM
UO-31
  GI50: 5.15 nM
MCF7
  GI50: 5.89 nM
MDA-MB-231
  GI50: 33.9 nM
Hs-578T
  GI50: 4.57 nM
T47D
  GI50: 21 nM

## C[C@H]1O[C@H](O[C@H]2CC[C@@]3(C)[C@H](CC[C@@H]4[C@@H]3CC[C@]3(C)[C@@H](C5=CC(=O)OC5)CC[C@]43O)C2)CC[C@@H]1O
NCI-H460 [1]
  Activity: 16.63%
NCI-H460 [2]
  Activity: 19.63%
NCI-H460 [3]
  Activity: 24.88%
NCI-H460 [4]
  Activity: 58.34%
NCI-H460 [5]
  Activity: 89.05%
NCI-H460 [6]
  Activity: 100%
NCI-H460 [7]
  Activity: 100%
NCI-H460 [8]
  IC50: 387 nM
NCI-H460 [9]
  Activity: 15.33%
MOLT-4
  GI50: 35.3 nM
RPMI-8226
  GI50: 117 nM
SR
  GI50: 79.5 nM
A549
  GI50: 30.6 nM
EKVX
  GI50: 62.1 nM
HOP-62
  GI50: 56.4 nM
HOP-92
  GI50: 128 nM
NCI-H226
  GI50: 168 nM
NCI-H322M
  GI50: 106 nM
NCI-H460 [10]
  GI50: 35.1 nM
NCI-H522
  GI50: 40.8 nM
COLO 205
  GI50: 348 nM
HCT-15
  GI50: 116 nM
HT-29
  GI50: 97 nM
KM12
  GI50: 228 nM
SW-620
  GI50: 52.6 nM
SF-268
  GI50: 37.8 nM
SF-295
  GI50: 71.6 nM
SF-539
  GI50: 43.8 nM
SNB-19
  GI50: 315 nM
SNB-75
  GI50: 99 nM
U-251
  GI50: 35.3 nM
PC-3
  GI50: 101 nM
DU-145
  GI50: 30.5 nM
LOX IMVI
  GI50: 60.6 nM
Malme-3M
  GI50: 182 nM
M14
  GI50: 156 nM
MDA-MB-435
  GI50: 115 nM
SK-MEL-28
  GI50: 186 nM
SK-MEL-5
  GI50: 37.1 nM
UACC-257
  GI50: 157 nM
NCI-H23
  GI50: 42.7 nM
UACC-62
  GI50: 168 nM
OVCAR-3
  GI50: 47.8 nM
OVCAR-4
  GI50: 191 nM
OVCAR-8
  GI50: 76.7 nM
SK-OV-3
  GI50: 194 nM
786-0
  GI50: 58.2 nM
A498
  GI50: 131 nM
ACHN
  GI50: 34.8 nM
SN12C
  GI50: 40.9 nM
TK-10
  GI50: 46.3 nM
UO-31
  GI50: 57 nM
MCF7
  GI50: 79.3 nM
MDA-MB-231
  GI50: 392 nM
Hs-578T
  GI50: 26.1 nM
T47D
  GI50: 409 nM
